The subject of assay [1] is human skeletal myotubes. The experiment in a line: Glycogen synthesis assay in human skeletal myotubes. Conditions: 24 hours. It is filed as cell-based. As to the method: Human skeletal myotubes were incubated with or without SBI-477 and then treated with or without insulin (100 nM) for 30 minutes. Glycogen synthesis rates were then measured as described (Halse, et al., J Biol Chem. 1999; 274(2):776-780). Briefly, differentiated primary human skeletal myotubes were treated with SBI-477 as described in the glucose uptake assay. Following incubation with SBI-477, cells were serum starved in α-MEM for 1 hour. The medium was replaced with α-MEM supplemented with [14C]-D-glucose (1 μCi/mL) for three hours and then treated in the absence or presence of insulin (100 nM) for 30 minutes. After incubation, the cells were washed three times with ice-cold PBS and then lysed in 30% potassium hydroxide (KOH) containing 6 mg/mL glycogen. For glycogen precipitation, the samples were added to ice-cold 100% ethanol for 18 hours at 4° C. The samples were centrifuged at 8,500×g for 10 minutes at 4° C. and the supernatant was discarded. After one wash with 75% ethanol, the glycogen precipitate was dissolved in distilled water. [14C]-D-glucose incorporated to glycogen was counted by liquid scintillation analyzer (PerkinElmer) and normalized to total protein.

The target in a further assay is SCD-1 (Homo sapiens, UniProt O00767). The experiment in a line: Direct inhibition of SCD-1 activity. It is filed as biochemical. Conditions: data not shown.
Assay [2] is described as follows: Intracellular lipolysis rates. It is filed as cell-based. Conditions: data not shown.
For a further assay, the target named is T1, MondoA (Homo sapiens, UniProt Q9HAP2).
T1 construct: endogenous in cells; host or cells: human skeletal myoblasts
Description: Intracellular localization of MondoA (immunolocalization). The note with it: human skeletal myoblasts; data not shown. The format is cell-based. As for the experimental part:
The activity of ChREBP and MondoA is governed, in part, by nuclear-cytoplasmic shuttling mechanisms that are incompletely understood but likely involve glucose metabolites and phosphorylation (Stoltzman, et al., Proc Natl Acad Sci USA. 2008; 105(19):6912-6917; Filhoulaud, et al., Trends Endocrinol Metab. 2013; 24(5):257-268). Accordingly, the effect of SBI-477 on intracellular localization of MondoA was assessed. […] The results of immunoblotting studies conducted with fractionated cellular extracts further supported this conclusion (FIG. 5D).

In assay [3] the test system is human skeletal myotubes. The experiment in a line: Quantitative lipidomic analyses and TAG biosynthesis pathway modeling. It is filed as cell-based. Conditions: oleate-loaded myotubes. As for the experimental part: Quantitative lipidomic analyses was performed on human skeletal myotubes exposed to bovine albumin serum (BSA) or 100 μM oleate in the presence of DMSO vehicle (white bars) or 10 μM SBI-477 (black bars) for 24 hours.
Primary human myotubes were treated with BSA or 100 μM oleate with 10 μM SBI-477 or a vehicle control for 24 hours. The cells were added to […] in an Eppendorf tube and homogenized for 1 minute using a disposable soft tissue homogenizer. A 25 μL aliquot was used to determine the protein content (BCA protein assay kit, Thermo Scientific, Rockford, Ill.). The remaining homogenate was accurately transferred into a disposable glass culture test tube, and a mixture of lipid internal standards was added prior to lipid extraction for quantification of all reported lipid species. Lipid extraction was performed by using a modified Bligh and Dyer procedure as described previously (Wang and Han, 2014). Each lipid extract was resuspended into a volume of 500 μL of chloroform/methanol (1:1, v/v) per mg of protein and flushed with nitrogen, capped, and stored at −20° C. for lipid analysis. For ESI direct infusion analysis, lipid extract was further diluted to a final concentration of ˜500 fmol/μL, and the mass spectrometric analysis was performed on a QqQ mass spectrometer (Thermo TSQ VANTAGE, San Jose, Calif.) equipped with an automated nanospray device (TriVersa NanoMate, Advion Bioscience Ltd., Ithaca, N.Y.).
Intracellular TAG can be formed through reacylation of DAG species generated from several pathways including a de novo glycerolphosphate biosynthetic pathway that involves dephosphorylation of phosphatidic acid (DAGPA), reacylation of monoacylglycerol (DAGMAG), and to a lesser extent, hydrolysis of phosphatidyl inositol (DAGPI). […] This approach uses the individual TAG ion profile, as determined by mass spectrometry, to predict the relative contribution of each pathway to the overall cellular TAG pool. […]

Another assay deals with TXNIP. Description: TXNIP protein levels by western blot. The format is cell-based. Conditions: human myotubes. As for the experimental part: FIGS. 4A-C show downregulation of TXNIP and ARRDC4 expression by SBI-477. (FIG. 4A) TXNIP and ARRDC4 mRNA levels as determined by quantitative RT-PCR in human myotubes treated with SBI-477 (10 μM) or DGAT1 inhibitor (DGATi, […]) for 24 hours in the absence or presence of 100 μM oleate (n=4). Expression is shown relative to vehicle/BSA treatment. (FIG. 4B) TXNIP gene expression following exposure to a dose range of SBI-477 for 24 hours (n=4). (FIG. 4C) Left, Effect of SBI-477 on TXNIP protein levels as determined by western blot analysis by SBI-477. Right, Quantitation of the TXNIP western blot data is shown (n=5). *p<0.05 vs. Vehicle/BSA control, †p<0.05 vs. Vehicle/oleate by one-way ANOVA with Bonferroni post hoc test. The data are shown as mean±SD.
Cells were lysed in the RIPA buffer containing 1% NP-40, 5 mM Na4P2O7, 1 mM EDTA, 20 mM NaF, 2 mM Na3VO4, 1× cOmplete™ protease inhibitor (Roche) and 1 mM phenylmethylsulfonyl fluoride. Whole cell lysates were subjected to SDS-PAGE and transferred to a nitrocellulose membrane. The blots were hybridized with specific antibodies and developed with enhanced chemiluminescence kit (Pierce). […] Protein quantification was performed using FluorChemQ (Alpha Innotech) and normalized to […]-actin or total protein where indicated.

Structures are written as SMILES.

T1 sequence (Q9HAP2 whole entry): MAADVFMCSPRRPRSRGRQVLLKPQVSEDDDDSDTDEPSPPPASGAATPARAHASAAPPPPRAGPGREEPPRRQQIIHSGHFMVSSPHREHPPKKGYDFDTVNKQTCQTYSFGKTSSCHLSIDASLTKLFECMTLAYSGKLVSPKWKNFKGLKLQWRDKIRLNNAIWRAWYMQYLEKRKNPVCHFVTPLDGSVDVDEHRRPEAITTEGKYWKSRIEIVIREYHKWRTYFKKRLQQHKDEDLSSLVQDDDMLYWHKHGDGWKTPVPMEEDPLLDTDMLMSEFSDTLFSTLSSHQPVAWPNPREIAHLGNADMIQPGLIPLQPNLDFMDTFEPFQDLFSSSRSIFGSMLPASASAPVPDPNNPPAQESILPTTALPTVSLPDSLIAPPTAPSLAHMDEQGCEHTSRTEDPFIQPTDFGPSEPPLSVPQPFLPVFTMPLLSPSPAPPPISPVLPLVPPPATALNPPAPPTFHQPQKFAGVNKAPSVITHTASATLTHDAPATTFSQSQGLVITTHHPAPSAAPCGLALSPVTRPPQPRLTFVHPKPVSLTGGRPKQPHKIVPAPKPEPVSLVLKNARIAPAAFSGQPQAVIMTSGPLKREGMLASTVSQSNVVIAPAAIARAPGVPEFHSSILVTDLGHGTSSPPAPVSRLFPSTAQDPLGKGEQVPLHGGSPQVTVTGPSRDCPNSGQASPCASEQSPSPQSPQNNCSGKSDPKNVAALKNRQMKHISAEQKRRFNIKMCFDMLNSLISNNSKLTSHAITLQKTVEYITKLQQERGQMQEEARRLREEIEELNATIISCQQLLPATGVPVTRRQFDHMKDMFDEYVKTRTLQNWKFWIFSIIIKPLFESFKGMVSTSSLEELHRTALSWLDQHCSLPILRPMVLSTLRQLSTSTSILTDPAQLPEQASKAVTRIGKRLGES
Sequence of SCD-1 (O00767 whole entry, species assumed): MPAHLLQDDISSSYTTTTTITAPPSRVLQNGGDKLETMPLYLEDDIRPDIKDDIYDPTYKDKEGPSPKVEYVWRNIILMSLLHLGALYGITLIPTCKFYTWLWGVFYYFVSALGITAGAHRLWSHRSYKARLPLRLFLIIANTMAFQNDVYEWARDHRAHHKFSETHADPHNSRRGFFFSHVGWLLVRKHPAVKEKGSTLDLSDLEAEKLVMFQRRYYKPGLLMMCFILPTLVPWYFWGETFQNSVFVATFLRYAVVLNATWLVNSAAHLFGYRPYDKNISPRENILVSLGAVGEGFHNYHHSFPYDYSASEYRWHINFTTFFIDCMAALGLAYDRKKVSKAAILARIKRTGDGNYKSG

For `COc1ccc(-c2csc(NC(=O)c3ccc(OCC(=O)N4CCOCC4)c(OC)c3)n2)cc1` [Cpd. 7, 3-methoxy-N-(4-(4-methoxyphenyl)thiazol-2-yl)-4-(2-morpholino-2-oxoethoxy)benzamide], in the assay on human skeletal myotubes [1], the Glycogen synthesis rates result was “enhanced by SBI-477 treatment in a dose dependent manner”. Moreover, the “Direct inhibition of SCD-1 activity” value at SCD-1 is on record as “not found that SBI-477 directly inhibits”. Also, the Intracellular lipolysis rates entry in assay [2] was “not due to blocking cellular fatty acid uptake or increasing intracellular lipolysis rates”. In addition, the “Nuclear localization of MondoA” value on MondoA is on record as “near complete nuclear exclusion of MondoA”. Further, the “Levels of ceramide and total sphingomyelin” value in the assay on human skeletal myotubes [3] is recorded as “not significantly altered”. Also, in the assay with human skeletal myotubes [3] (24 hour exposure), the DAG species levels result is given as “reduced” and the TAG species levels result is on record as “reducing all TAG species measured”. Besides, the TXNIP protein levels result in the assay with TXNIP was “reduced by SBI-477 in dose-dependent manner”.

The record behind these values is patent publication US11028061B2, “Modulators of myocyte lipid accumulation and insulin resistance and methods of use thereof” (Sanford Burnham Prebys Medical Discovery Institute, priority 2015, dated 2021).
